Source: article doi:10.1101/2025.05.02.651913 (bioRxiv, 2025)
Where two headings read alike, the source gives them in different places.

Tests used:
[1] = tested on: MPXV strain hMPXV/USA/MA001/2022 (Lineage B.1, Clade IIb); type: cell-based, Mpox virus (MPXV)
MPXV (2022 Clade IIb) [2] = type: cell-based, Mpox virus (MPXV)
MPXV [3] = type: cell-based, Mpox virus (MPXV)
MPXV [4] = tested on: MPXV; parameters: species or system C57BL/6 mice; details: mouse, in vivo
MPXV [5] = details: cited from earlier work
MPXV [6] = details: in vivo; cited from earlier work
[7] = in vivo; cited from earlier work
Mpox-related lesions = details: human, in vivo; cited from earlier work
MPXV Clade IIb = type: cell-based, Mpox virus (MPXV)
in vitro = details: human
MPXV (2022 Clade IIb) [8] = assay: microbe, parasite or virus in culture; type: cell-based, Mpox virus (MPXV); details: Monkeypox virus, read-out: IC50 (inhibition of MPXV infection)
phospho-STING = type: cell-based, human
phospho-NF-κB = type: cell-based, human
[9] = human, in vivo; cited from earlier work
cowpox virus = details: cited from earlier work
vaccinia virus = details: cited from earlier work

## CN(C)C/C=C/C(=O)Nc1cc2c(Nc3ccc(F)c(Cl)c3)ncnc2cc1OC(F)F.O=C(O)/C=C\C(=O)O.O=C(O)/C=C\C(=O)O [Mefatinib]
[1]
  Duplicate of Duplicate of Hits: No CPE: 1
MPXV (2022 Clade IIb) [2]
  antiviral activity at lower concentrations: potent antiviral activity

## O=C(Nc1ncc([N+](=O)[O-])s1)c1ccc([N+](=O)[O-])c(Cl)c1 [SM-7368]
MPXV [3]
  viral protein in cell lysates (Western blot): substantially reduced
MPXV [4]
  skin inflammation and lesions at Day 3: some low-grade inflammation and lesions
  skin inflammation and lesions at Day 12: fully resolved
[1]
  Duplicate of Duplicate of Hits: No CPE: 1
MPXV (2022 Clade IIb) [2]
  antiviral activity at lower concentrations: potent antiviral activity
VK2/E6E7 cells
  CC50: > 1000 nM
  nontoxic up to a concentration: ≤ 1000 nM

## COc1ncc(-c2ccc3nccc(-c4ccnnc4)c3c2)cc1NS(=O)(=O)c1ccc(F)cc1F [GSK2126458, Omipalisib]
[1]
  Duplicate of Duplicate of Hits: No CPE: 1
MPXV (2022 Clade IIb) [2]
  antiviral activity at lower concentrations: potent antiviral activity

## Cc1ccc(C(=O)Nc2ccc(CN3CCN(C)CC3)c(C(F)(F)F)c2)cc1C#Cc1cnc2[nH]ncc2c1 [GZD824, Olverembatinib (dimesylate)]
[1]
  Duplicate of Duplicate of Hits: No CPE: 1
MPXV (2022 Clade IIb) [2]
  antiviral activity at lower concentrations: potent antiviral activity

## CCNC(=O)N1CCc2cc(OC)c(OCCc3ccc(OC)c(N)c3)cc2C1c1ccc(OC)cc1C (stereo not drawn) [KRAS inhibitor-10]
MPXV [4]
  skin inflammation and lesions at Day 3: some low-grade inflammation and lesions
  skin inflammation and lesions at Day 12: fully resolved
[1]
  Duplicate of Duplicate of Hits: No CPE: 1
VK2/E6E7 cells
  CC50: > 1000 nM
  nontoxic up to a concentration: ≤ 1000 nM

## NC(=O)c1ncn([C@@H]2O[C@H](CO)[C@@H](O)[C@H]2O)n1 [Ribavirin]
MPXV [5]
  MPXV replication in vitro: block MPXV replication
MPXV [6]
  MPXV replication in mouse models: block MPXV replication
[7]
  adverse effect in humans: severe bone marrow suppression

## O=C(NN1C(=O)[C@@H]2[C@@H]3C=C[C@@H]([C@H]4C[C@@H]34)[C@@H]2C1=O)c1ccc(C(F)(F)F)cc1 [Tecovirimat]
Mpox-related lesions
  time to resolution of Mpox-related lesions: did not reduce the time to resolution of Mpox-related lesions
MPXV Clade IIb
  antiviral activity against MPXV Clade IIb: did not exhibit strong antiviral activity

## O=C(Nc1ccc([N+](=O)[O-])cc1Cl)c1cc(Cl)ccc1O [Niclosamide]
In vitro
  CC50: 96.3 nM
MPXV (2022 Clade IIb) [8]
  IC50: 11.8 nM
[1]
  Duplicate of Duplicate of Hits: No CPE: 1
MPXV (2022 Clade IIb) [2]
  viral inhibition compared to vehicle treatment (percent viral infectivity, Fig. 2B): strongest viral inhibition
VK2/E6E7 cells; human
  concentration at which toxicity was shown: 80 to 100 nM

## CCOc1cc2ncc(C#N)c(Nc3ccc(F)c(Cl)c3)c2cc1NC(=O)/C=C/CN(C)C [Pelitinib]
[1]
  Duplicate of Duplicate of Hits: No CPE: 1
MPXV (2022 Clade IIb) [2]
  antiviral activity at lower concentrations: potent antiviral activity

## IRAK4-IN-6
MPXV [3]
  viral protein in cell lysates (Western blot): substantially reduced
MPXV [4]
  visible skin lesions or neutrophil infiltration: none of the mice in the IRAK4-IN-6-treated group had visible skin lesions or neutrophil infiltration
[1]
  Duplicate of Duplicate of Hits: No CPE: 1
phospho-STING
  phospho-STING expression: significantly increased
phospho-NF-κB
  phospho-NF-κB expression: significantly increased
VK2/E6E7 cells
  CC50: > 1000 nM
  nontoxic up to a concentration: ≤ 1000 nM

## COC1(c2sc3c(N4CCOCC4)nc(-c4cnc(N)nc4)nc3c2C)COC1 [GNE-317]
[1]
  Duplicate of Duplicate of Hits: No CPE: 1
VK2/E6E7 cells
  CC50: 201 nM
  concentration at which toxicity was shown: 80 to 100 nM

## Nc1ccn(C[C@@H](CO)OCP(=O)(O)O)c(=O)n1 [cidofovir]
[9]
  serious side effects in clinical trials: kidney toxicity

## PI3K/mTOR Inhibitor-11
[1]
  Duplicate of Duplicate of Hits: No CPE: 1
MPXV (2022 Clade IIb) [2]
  antiviral activity at lower concentrations: potent antiviral activity
VK2/E6E7 cells
  CC50: 421 nM
  concentration at which toxicity was shown: 80 to 100 nM

## CC(C)n1nc(-c2ccc3oc(N)nc3c2)c2c(N)ncnc21 [INK-128, Sapanisertib]
In vitro
  CC50: 353 nM
MPXV (2022 Clade IIb) [8]
  IC50: 27.1 nM
[1]
  Duplicate of Duplicate of Hits: No CPE: 1
MPXV (2022 Clade IIb) [2]
  antiviral activity at lower concentrations: potent antiviral activity
VK2/E6E7 cells; human
  concentration at which toxicity was shown: 80 to 100 nM

## C=CC(=O)Nc1cccc(Oc2nc(Nc3ccc(N4CCN(C)CC4)c(F)c3)nc3[nH]ccc23)c1 [MC-Avitinib, Avitinib]
[1]
  Duplicate of Duplicate of Hits: No CPE: 1

## COc1ccc(N(C(=O)Oc2cc(C(=O)Nc3cccc(C(F)(F)F)c3)ccc2C)c2ccnc(Nc3ccc(N4CCN(C)CC4)cc3)n2)c(OC)c1 [MC-WH-4-025, WH-4-025]
[1]
  Duplicate of Duplicate of Hits: No CPE: 1

## C#Cc1cccc(Nc2ncnc3cc(OC)c(OCCCN4CCOCC4)cc23)c1 [MC-NRC-2694, NRC-2694]
[1]
  Duplicate of Duplicate of Hits: No CPE: 1

## C=CC(=O)Nc1cc(Nc2ncc(C(=O)OC(C)C)c(-c3cn(C)c4ccccc34)n2)c(OC)cc1N(C)CCN(C)C.O=C(O)CCC(=O)O [MC-Mobocertinib (succinate), Mobocertinib (succinate)]
[1]
  Duplicate of Duplicate of Hits: No CPE: 1

## C=CC(=O)N[C@H]1C=C(C)c2c(-c3cnc4ccccc4c3)c3c(N)ncnc3n2C1 [MC-Zipalertinib, Zipalertinib]
[1]
  Duplicate of Duplicate of Hits: No CPE: 1

## XMU-MP-3 [MC-XMU-MP-3]
[1]
  Duplicate of Duplicate of Hits: No CPE: 1

## CC#CC(=O)Nc1ccc2ncnc(Nc3cccc(Br)c3)c2c1 [MC-CL-387785, CL-387785]
[1]
  Duplicate of Duplicate of Hits: No CPE: 1

## Afatinib impurity 11 [MC-Afatinib impurity 11]
[1]
  Duplicate of Duplicate of Hits: No CPE: 1

## CN1CCN(c2ccc(Nc3ncc4nc(Nc5ccccc5)n([C@@H]5CCN(S(=O)(=O)C6CC6)C5)c4n3)cc2)CC1 [MC-EGFR-IN-11, EGFR-IN-11]
[1]
  Duplicate of Duplicate of Hits: No CPE: 1

## COc1cc2c(Nc3ccc(Cl)c(Cl)c3F)ncnc2cc1OC[C@@H]1C[C@@H]2CN(C)C[C@@H]2C1 [MC-Tesevatinib, Tesevatinib]
[1]
  Duplicate of Duplicate of Hits: No CPE: 1

## COc1cc2ncnc(Nc3ccc(F)c(Cl)c3)c2cc1OCCCN1CCOCC1 [Gefitinib]
Cowpox virus
  cowpox virus replication: reduce vaccinia and cowpox virus replication
[1]
  Duplicate of Duplicate of Hits: No CPE: 1
Vaccinia virus
  vaccinia virus replication: reduce vaccinia and cowpox virus replication

## COc1cc2ncnc(Nc3ccc(F)c(Cl)c3)c2cc1OCCN1CC2(CC2)C2(C1)OCCO2 [MC-Simotinib, Simotinib]
[1]
  Duplicate of Duplicate of Hits: No CPE: 1

## C=CC(=O)Nc1cc2c(Nc3ccc(F)c(Cl)c3)ncnc2cc1OCCCN1CCOCC1 [MC-Canertinib, Canertinib]
[1]
  Duplicate of Duplicate of Hits: No CPE: 1

## COc1ccc(-c2cc3c(C)nc(N)nc3n([C@H]3CC[C@H](OCCO)CC3)c2=O)cn1 [NKIL-PF-04691502, PF-04691502]
[1]
  Duplicate of Duplicate of Hits: No CPE: 1

## CN(C)C/C=C/C(=O)Nc1cccc(-c2c(-c3ccccc3)oc3ncnc(N[C@H](CO)c4ccccc4)c23)c1 [MC-DBPR112, DBPR112]
[1]
  Duplicate of Duplicate of Hits: No CPE: 1

## C=CC(=O)Nc1cccc(Oc2nc(Nc3ccc(N4CCN(C)CC4)c(F)c3)nc3[nH]ccc23)c1.O=C(O)/C=C\C(=O)O [MC-Avitinib (maleate), Avitinib (maleate)]
[1]
  Duplicate of Duplicate of Hits: No CPE: 1

## CCN(CC)CCNC(=O)c1c(C)[nH]c(/C=C2\C(=O)Nc3ccc(Cl)cc32)c1C [MC-SU11652, SU11652]
[1]
  Duplicate of Duplicate of Hits: No CPE: 1
